Paper PMC8861615, “Searching for plant-derived antivirals against dengue virus and Zika virus” (Virology Journal, 2022)
“Also recorded” adds a separate entry of the source. Read-outs that look alike come from different tables or passages of the source.

Key:
DENV-2 [1] = assay: Anti-DENV-2 activity by viral CPE reduction and MTT method in BHK-21 cells; type: cell-based, Dengue virus serotype 2
Experimental: (§1) Plant extracts were screened for their cytotoxic and anti-ZIKV and anti-DENV activities in Vero cells and BHK-21, respectively, in 96-well culture plates by observing the reduction of the viral cytopathic effect (CPE) and then measured by the MTT method. The crude extracts were dissolved in 4% DMSO aqueous solution, and their concentration was normalized to 50 µg/ml with Eagle's minimum essential medium (MEM) supplemented with 2% fetal bovine serum (FBS). Briefly, 8 × 10^3 of BHK-21 cells or 1 × 10^4 of Vero cells per well were seeded in a 96-well plate and incubated for 24 h at 37 °C and 5% CO2 atmosphere. Extract solution and virus suspension, at a multiplicity of infection (m.o.i.) of 2, for both viruses, were simultaneously added on 70% confluent monolayers. Each extract was tested in duplicate. Controls of untreated infected and untreated uninfected cells incubated with or without DMSO were included. Interferon-α 2B, in concentrations of 500 and 1000 IU/mL, was used as a positive antiviral control in all antiviral assays. […] Briefly, the supernatants were removed, and 30 µl of a stock solution of MTT (2 mg/ml) dissolved in phosphate-buffered saline were added to each well. After 90 min of incubation at 37 °C, 130 µl of DMSO were added to each well, and plates were homogenized for 5 min at 500 rpm. The absorbance values of each reaction were measured in an ELISA reader (Spectra Max, Molecular Devices, USA) at λ540 nm. […] Cytotoxicity (CC50) and anti-ZIKV/DENV-2 (CE50) experiments were performed in duplicate and repeated at least three times.
(§2) Viral CPE and cell viability were observed by optic microscopy and measured by the MTT method as previously described. […] The experiments were performed in duplicate and repeated at least three times.
(§3) Bioassay data were normalized to untreated uninfected cells and the EC50 and CC50 values were obtained using GraphPad Prism 5 based on nonlinear logistic regression of the experimental dose–response curves. […] The CC50 and EC50 values ratio was used as a selectivity index (SI).

ZIKV [2] = assay: microbe, parasite or virus in culture; type: cell-based, Zika virus; details: for ZIKV EC50 (µM) / EC50: compounds, Vero cells, MTT
Experimental: as §1, §2, §3

BHK-21 cells = assay: Cytotoxicity (CC50) by MTT method in BHK-21 cells; type: cell-based, Hamster; details: for CC50: compounds, MTT
Experimental: (§4) Compounds and selected extracts that tested positive for anti-ZIKV or anti-DENV-2 activity at the screening step had their CC50 determined by using an 8‐point dose range in 96 well microplate containing Vero or BHK-21 cell monolayers. Cell viability was observed by optic microscopy and measured by the MTT method as described. The experiments were performed in duplicate and repeated at least three times.
(§5) Bioassay data were normalized to untreated uninfected cells and the EC50 and CC50 values were obtained using GraphPad Prism 5 based on nonlinear logistic regression of the experimental dose–response curves. The values correspond to three independent assays' average and standard deviation with at least 8 sample distinct concentrations. The CC50 and EC50 values ratio was used as a selectivity index (SI). The extracts and compounds with higher SI values were considered the most promising and selected for further investigation if available in sufficient quantities.

Vero cells = assay: Cytotoxicity (CC50) by MTT method in Vero cells; type: cell-based; details: for CC50: compounds, MTT
Experimental: as §4, §5

DENV-2 [3] = assay: Virucidal activity by plaque reduction assay, DENV in BHK-21 cells; type: cell-based, Dengue virus serotype 2; details: compounds
Experimental: (§6) The virucidal activity of extracts and compounds against ZIKV and DENV was assessed by plaque reduction assay in Vero and BHK-21 cells, respectively, in 24 well microplates. […] Virus suspension without the extract/compound was included as a control. Surviving infectious viral particles were assessed by viral plaque formation assay. Briefly, the infected monolayers were overlaid with 1.5% carboxymethyl cellulose containing MEM with 2% FBS and incubated for five days. After that, cell monolayers were fixed with 10% formaldehyde and stained with 1% crystal violet 1% in an 30% ethanol aqueous solution.

ZIKV [4] = assay: Virucidal activity by plaque reduction assay, ZIKV in Vero cells; type: cell-based, Zika virus; details: compounds
Experimental: as §6

[5] = Cytotoxicity (CC50) by MTT method in BHK-21 cells; type: cell-based, Hamster; details: hamster, compounds, MTT
Experimental: as §4, §5

[6] = Cytotoxicity (CC50) by MTT method in Vero cells; type: cell-based; details: African green monkey, compounds, MTT
Experimental: as §4, §5

[7] = Dengue virus, DENV2, BHK-21, read-out: DENV-2 EC50 (µM)
[8] = compounds, BHK-21 cells, MTT, read-out: DENV-2 EC50

Structure (SMILES)	DENV-2 EC50 (µM) (DENV-2 [1]; compounds, BHK-21 cells, MTT)	CC50 (BHK-21 cells)	CC50 (Vero cells)	DENV-2 Virucidal activity (DENV-2 [3])	ZIKV Virucidal activity (ZIKV [4])	EC50 (ZIKV [2])	further results
CC(=O)O[C@H]1[C@H]2c3cc4c(cc3CN3CCC(=C[C@@H]1OC(C)=O)[C@H]23)OCO4 [1,2-diacetyl-lycorine]	no antiviral activity; also recorded: Inactive	> 100 µM	> 100 µM	No	No	–	ZIKV EC50 (µM) (ZIKV [2]): Inactive
CC(=O)O[C@H]1[C@H]2c3cc4c(cc3CN3CCC(=C[C@@H]1O)[C@H]23)OCO4 [1-acetyl-lycorine]	no antiviral activity; also recorded: Inactive	7.8 µM	19.8 µM	No	No	19.3 µM	–
O[C@H]1[C@H]2c3cc4c(cc3CN3CCC(=C[C@@H]1O)[C@H]23)OCO4 [Lycorine]	–	–	–	No	No	–	EC50 (DENV-2 [1]; [7]): 0.5 µM; EC50 (ZIKV [2]; Zika virus): 0.9 µM; CC50 [5]: 4.3 µM; CC50 [6]: 3.4 µM
O=C1NC2C(=C[C@H](O)[C@@H](O)[C@H]2OC2OCC(O)C(O)C2O)c2cc3c(c(O)c21)OCO3 (stereo partly drawn) [Narciclasine-4-O-β-D-xylopyranoside, narciclasine-4-O-β-D-xylopyranoside]	–	39.3 µM	51.8 µM	No	No	7.9 µM	EC50 (DENV-2 [1]; [8]): 7.9 µM; Times less toxic than narciclasine in BHK-21 cells (BHK-21 cells; ratio versus narciclasine): 430 times; Times less toxic than narciclasine in Vero cells (Vero cells; ratio versus narciclasine): 430 times
O=C1N[C@@H]2C(=C[C@H](O)[C@@H](O)[C@H]2O)c2cc3c(c(O)c21)OCO3 [Narciclasine]	–	–	–	No	No	0.02 µM	EC50 (DENV-2 [1]; [8]): 0.02 µM; Active concentration against DENV-2, times less than lycorine (DENV-2 [1]; ratio versus lycorine): 25 times; Active concentration against DENV-2, times less than pretazettine (DENV-2 [1]; ratio versus pretazettine): 40 times; Active concentration against ZIKV, times less than lycorine (ZIKV [2]; ratio versus lycorine): 45 times; Active concentration against ZIKV, times less than pretazettine (ZIKV [2]; ratio versus pretazettine): 95 times
CO[C@@H]1C=C[C@@]23c4cc5c(cc4C(O)O[C@H]2CN(C)[C@H]3C1)OCO5 (stereo partly drawn) [Pretazettine]	–	–	–	No	No	–	EC50 (DENV-2 [1]; [7]): 0.8 µM; EC50 (ZIKV [2]; Zika virus): 1.9 µM; CC50 ([5]; BHK-21 cell monolayers): 5.4 µM; CC50 ([6]; Vero cell monolayers): 7.2 µM
C[C@@H]1O[C@@H](OC[C@H]2O[C@@H](Oc3c(-c4ccc(O)c(O)c4)oc4cc(O)cc(O)c4c3=O)[C@H](O)[C@@H](O)[C@@H]2O)[C@H](O)[C@H](O)[C@H]1O [Rutine]	no antiviral activity; also recorded: Inactive	> 300 µM	> 300 µM	No	–	–	ZIKV EC50 (µM) (ZIKV [2]): no antiviral activity; also recorded: Inactive
